For 1 molecule, IC50 results are on record in patent US9802941B2, “Compounds and methods for inhibiting histone demethylases” (Gilead Sciences, Inc., priority 2014, dated 2017).

Common to all, as to assay type: biochemical
One assay has as its target T1, KDM2B (FBXL10) (Homo sapiens, UniProt Q8NHM5).
T1 construct: KDM2B; BPS,; 1-650; Bac; purchased BPS Bioscience, US; host or cells: baculovirus system
T1 sequence (Q8NHM5 1-650): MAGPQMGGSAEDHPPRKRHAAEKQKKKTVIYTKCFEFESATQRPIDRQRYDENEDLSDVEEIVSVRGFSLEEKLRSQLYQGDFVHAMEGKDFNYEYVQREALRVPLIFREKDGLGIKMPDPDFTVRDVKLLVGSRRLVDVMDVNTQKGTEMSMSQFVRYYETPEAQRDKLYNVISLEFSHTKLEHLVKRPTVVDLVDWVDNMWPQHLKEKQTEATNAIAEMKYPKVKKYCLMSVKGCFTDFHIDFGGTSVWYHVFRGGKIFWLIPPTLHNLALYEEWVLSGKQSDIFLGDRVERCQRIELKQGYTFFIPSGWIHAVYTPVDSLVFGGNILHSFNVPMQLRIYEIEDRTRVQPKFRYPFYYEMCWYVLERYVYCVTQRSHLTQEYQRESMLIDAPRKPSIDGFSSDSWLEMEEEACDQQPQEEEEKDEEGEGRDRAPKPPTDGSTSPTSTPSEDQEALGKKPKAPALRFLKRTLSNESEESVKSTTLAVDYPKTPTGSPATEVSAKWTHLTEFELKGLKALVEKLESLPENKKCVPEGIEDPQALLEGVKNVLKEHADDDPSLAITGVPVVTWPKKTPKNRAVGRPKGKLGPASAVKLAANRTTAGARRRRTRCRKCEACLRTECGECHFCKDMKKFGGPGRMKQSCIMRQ
As to the kind of experiment: Histone lysine demethylase AlphaLISA assay, KDM2B. Conditions: AlphaLISA, in vitro; read-out: HDME Inhibition KDM2B. The method in brief: (§1)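 In vitro demethylase inhibition measured by AlphaLISA. Enzymes preincubated with compound 10 minutes in 50 mM Hepes (pH 7.4-8.0), 0.003-0.01% Tween-20, 0.1% BSA, 5 μM (NH4)2Fe(SO4)2 before substrate addition at room temperature.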
(In Alpha technology, singlet oxygen from a donor bead excites a nearby acceptor bead.)

A further assay has as its target T2, PHF8 (KDM7) (Homo sapiens, UniProt Q9UPP1).
T2 construct: KDM7 (PHF8); BRIC; 1-1322; Bac
Kind of assay: Histone lysine demethylase AlphaLISA assay, PHF8. The following applies: AlphaLISA, in vitro; read-out: HDME Inhibition PHF8. The method in brief:
as §1

The target of a further assay is T3, KDM4C (JMJD2C) (Homo sapiens, UniProt Q9H3R0).
T3 construct: KDM4C; BRIC, Denmark; 1-349; E. coli; host or cells: E. coli
T3 sequence (Q9H3R0 1-349): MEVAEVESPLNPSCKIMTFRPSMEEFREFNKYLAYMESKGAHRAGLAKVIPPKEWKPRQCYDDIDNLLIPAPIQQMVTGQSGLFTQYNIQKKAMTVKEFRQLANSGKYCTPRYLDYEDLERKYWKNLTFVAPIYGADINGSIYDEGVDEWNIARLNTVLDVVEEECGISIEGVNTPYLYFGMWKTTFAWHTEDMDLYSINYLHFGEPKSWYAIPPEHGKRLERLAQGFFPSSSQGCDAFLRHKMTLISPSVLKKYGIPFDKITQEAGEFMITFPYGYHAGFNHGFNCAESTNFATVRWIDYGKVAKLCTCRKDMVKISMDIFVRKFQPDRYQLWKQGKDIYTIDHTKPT
Kind of assay: Histone lysine demethylase AlphaLISA assay, KDM4C. In a few lines:
as §1

The next assay addresses T4, KDM5B (PLU-1) (Homo sapiens, UniProt Q9UGL1).
T4 construct: BRIC; 1-809; E. coli; host or cells: E. coli
T4 sequence (Q9UGL1 1-809): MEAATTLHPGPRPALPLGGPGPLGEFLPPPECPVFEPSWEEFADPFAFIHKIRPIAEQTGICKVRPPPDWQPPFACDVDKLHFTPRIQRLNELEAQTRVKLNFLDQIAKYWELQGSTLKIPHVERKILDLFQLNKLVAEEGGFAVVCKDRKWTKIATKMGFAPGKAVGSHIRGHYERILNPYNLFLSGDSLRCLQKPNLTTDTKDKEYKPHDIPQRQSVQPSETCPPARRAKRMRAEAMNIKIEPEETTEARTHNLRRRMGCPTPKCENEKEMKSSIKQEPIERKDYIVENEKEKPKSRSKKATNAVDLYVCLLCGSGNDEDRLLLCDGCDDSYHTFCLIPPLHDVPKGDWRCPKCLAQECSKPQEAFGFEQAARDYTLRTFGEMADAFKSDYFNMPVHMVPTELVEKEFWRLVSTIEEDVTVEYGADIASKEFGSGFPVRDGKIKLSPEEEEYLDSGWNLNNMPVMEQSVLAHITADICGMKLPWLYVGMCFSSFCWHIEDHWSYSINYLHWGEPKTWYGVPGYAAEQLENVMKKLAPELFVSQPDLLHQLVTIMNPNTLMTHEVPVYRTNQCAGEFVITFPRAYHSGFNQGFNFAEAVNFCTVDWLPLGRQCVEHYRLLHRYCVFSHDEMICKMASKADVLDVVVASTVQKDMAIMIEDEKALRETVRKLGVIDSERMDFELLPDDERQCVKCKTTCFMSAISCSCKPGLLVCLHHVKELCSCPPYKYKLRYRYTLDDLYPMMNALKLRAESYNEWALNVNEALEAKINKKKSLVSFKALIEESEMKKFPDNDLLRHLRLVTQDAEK
Kind of assay: Histone lysine demethylase AlphaLISA assay, KDM5B. In a few lines: as §1

Another assay deals with T5, KDM6A (UTX) (Homo sapiens, UniProt O15550).
T5 construct: KDM6A (UTX); BRIC; 919-1401; E. coli; host or cells: E. coli
As to the kind of experiment: Histone lysine demethylase AlphaLISA assay, KDM6A. The method in brief: as §1

Molecules are shown by their SMILES. Like-named read-outs stand apart in the source and are kept apart here.

T5 sequence (O15550 919-1401): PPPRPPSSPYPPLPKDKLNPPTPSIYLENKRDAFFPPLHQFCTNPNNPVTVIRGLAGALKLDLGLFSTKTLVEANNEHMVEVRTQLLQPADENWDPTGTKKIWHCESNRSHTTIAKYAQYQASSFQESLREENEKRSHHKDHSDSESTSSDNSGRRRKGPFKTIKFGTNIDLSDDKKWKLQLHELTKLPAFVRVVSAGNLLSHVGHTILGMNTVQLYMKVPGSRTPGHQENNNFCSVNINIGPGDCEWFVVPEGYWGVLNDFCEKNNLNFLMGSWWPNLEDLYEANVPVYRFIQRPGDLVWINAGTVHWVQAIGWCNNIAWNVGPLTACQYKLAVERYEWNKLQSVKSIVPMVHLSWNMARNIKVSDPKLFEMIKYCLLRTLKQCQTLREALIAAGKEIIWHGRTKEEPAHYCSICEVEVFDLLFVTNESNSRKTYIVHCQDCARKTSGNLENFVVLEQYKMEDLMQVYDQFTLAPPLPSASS
T2 sequence (Q9UPP1 37-440 limits assumed): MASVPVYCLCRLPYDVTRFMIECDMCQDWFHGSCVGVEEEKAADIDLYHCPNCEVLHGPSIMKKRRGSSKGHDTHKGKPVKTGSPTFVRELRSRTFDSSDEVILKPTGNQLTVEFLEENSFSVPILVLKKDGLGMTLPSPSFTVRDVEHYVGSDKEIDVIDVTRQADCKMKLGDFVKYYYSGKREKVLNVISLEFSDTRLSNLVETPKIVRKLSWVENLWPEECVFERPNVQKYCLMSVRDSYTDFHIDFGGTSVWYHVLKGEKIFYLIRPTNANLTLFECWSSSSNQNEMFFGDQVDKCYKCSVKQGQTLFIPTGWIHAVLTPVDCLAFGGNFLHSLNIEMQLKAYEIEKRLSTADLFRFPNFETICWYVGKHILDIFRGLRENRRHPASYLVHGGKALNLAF

Consider `Cc1cc(C(=O)O)cc(CNCc2nnc(C)n2Cc2ccc(F)cc2)n1` [Compound 37, 2-{[({4-[(4-Fluorophenyl)methyl]-5-methyl-4H-1,2,4-triazol-3-yl}methyl)amino]methyl}-6-methylpyridine-4-carboxylic acid], for which the IC50 at KDM2B (FBXL10) is 0.297 µM; on PHF8 (KDM7), 0.489 µM; at KDM4C (JMJD2C) (AlphaLISA assay, read-out: HDME Inhibition KDM4C (IC50)) it was over 10 µM; at KDM4C (JMJD2C) (AlphaLISA, in vitro, read-out: HDME Inhibition KDM4C), over 10 µM; on KDM5B (PLU-1) (AlphaLISA assay, read-out: HDME Inhibition KDM5B (IC50)) it was over 10 µM; on KDM5B (PLU-1) (AlphaLISA, in vitro, read-out: HDME Inhibition KDM5B) it was over 10 µM. The IC50 on KDM6A (UTX) (AlphaLISA assay, read-out: HDME Inhibition KDM6A (IC50)) was over 10 µM; at KDM6A (UTX) (AlphaLISA, in vitro, read-out: HDME Inhibition KDM6A), over 10 µM.
